Columns and labels:
[1] = test system: Femoral AVFs in young Wistar male rats; test: Rat femoral AVF model, histology and morphometry (VVG); assay type: in vivo
Description: (§1) Femoral AVFs were created in young Wistar male rats by connecting the femoral artery (side) and femoral vein (end) in the same limb. FIGS. 1A-B show the surgical procedure. Immediately after the blood flow was restored and dilatation of the femoral vein occurred, a 10 μl -drop of a composition comprising 2 mg/ml Compound of Formula (I) in PBS was placed at the AVF perivascularly and incubated for 5 minutes, to allow the Compound of Formula (I) to diffuse into the vascular wall. The Compound of Formula (I) was activated by a 1 minute illumination by 450 nm light. A control group of young Wistar male rats received a 10 μl -drop of phosphate buffered saline and the same light activation. The rats' skin was closed immediately after light activation. FIG. 1C is a photograph of the incubation with NVS, applied perivascularly on the anastomosis to allow the compound to diffuse into the vascular tissue. FIG. 1D is a photograph of the small molecule treated area being exposed to 1 minute of illumination with a 450 -nm light source. FIG. 1E depicts fluorescence images after following light activation, 2 animals were sacrificed and their vessels observed on a fluorescence microscope at 450 nm excitation for NVS.
Rats were euthanized 1 week (early time point, 4 per group) and 4 weeks (later time point, 10 per group) post-AVF creation for histology and morphometry. Verhoeff-Van Gieson (VVG)-stained thin cross-sections were used to measure the area enclosed by internal elastic lamina (IEL), the area of open lumen, and the area of neointimal hyperplasia (NH) by Image J software. Percent open lumen area=open lumen area/IEL-enclosed area×100%. These analyses were done at three locations: the entire AVF, the AVF venous limb, and the AVF arterial limb.
An unpaired, two-tailed t-test was used to determine the statistical significance between the two treatment groups (no-NVS (i.e., control) vs. NVS (treatment with Compound of Formula (I))) in each of the data sets, with α=0.05.

[2] = test system: MMP-2; test: Immunohistochemistry of the AVF: MMP-2; assay type: in vivo, rat; settings: 4 weeks
From the text: (§2) Based on the results from the morphometric analysis in Example 1, the expression level of several molecular targets associated with AVF maturation failure (i.e., MMP2-MMP-9, Ki-67, and IL6) in the AVF vessels at the 4-week time point were selected for further investigation.
(§3) But excessive fibrosis of the vessel walls due to local inflammation as well as the circumferential arrangement of newly synthesized collagen fibers has shown a positive association with AVF non-maturation (possibly due to decreasing the distensibility of the veins as they go through the arterialization process). MMP-9 is an inflammatory marker, and although MM-2 is usually not considered an inflammatory marker, both metalloproteinases have nearly identical ECM substrates and are important in vascular remodeling. […] Ki-67 is a marker of cell proliferation, which allows assessing the proliferation of vascular wall cells during the AVF development process.

[3] = test system: MMP-9; test: Immunohistochemistry of the AVF: MMP-9; assay type: in vivo, rat; settings: 4 weeks
From the text: as §2, §3

[4] = test system: IL-6; test: Immunohistochemistry of the AVF: IL-6; assay type: in vivo, rat; settings: 4 weeks
From the text: as §2, §3

[5] = test system: Ki-67; test: Immunohistochemistry of the AVF: Ki-67; assay type: in vivo, rat; settings: entire AVF, 4 weeks
From the text: as §2, §3

[6] = test system: HUVECs; test: Cell death (apoptosis) assay, R&D system kit, HUVEC; assay type: cell-based; settings: 0.25, 2.5, 25 μg/ml, 5 min, 450 nm light 1 min, D0-D3, FIG. 12A
Description: (§4) Cell death assays used the cell death detection R&D system kit to detect cell death via apoptosis. Cell density was 1×10^5 per well in a 96-well plate for R&D system kit. HUVECs and HASMCs were treated with NVS in different concentrations (0, 0.25, 2.5, and 25 μg/ml) in serum free medium for 5 minutes in the incubator. After removing NVS, cells were washed with serum free medium once, and the plate was refilled with 200 μl serum free medium in each well. Cells were treated using 450 nm light for 1 minute at room temperature, and then serum free medium was removed and each well was refilled with 200 μl of medium supplemented with 10% serum. At 0, 1, 2, and 3 days post-treatment (D0, D1, D2, and D3), cell death assay was performed according to the manufacturer's protocol. Positive controls were cells incubated with hypertonic buffer (10 mM Tris PH 7.4, 400 mM NaCl, 10 mM MgCl2) at 37° C. for 2 hours.

[7] = test system: HASMCs; test: Cell death (apoptosis) assay, R&D system kit, HASMC; assay type: cell-based; settings: 0.25, 2.5, 25 μg/ml, 5 min, 450 nm light 1 min, D0-D3, FIG. 12B
Description: as §4

[8] = test system: collagen fibers in AVF medial layer; test: Multiphoton / SHG imaging of collagen fibers in AVF; assay type: in vivo, rat
Description: Second harmonic generation (SHG) imaging was performed on 5 μm thick formalin-fixed paraffin embedded (FFPE) sections using Leica SP8 Dive with spectral tunable detection. Collagen fiber orientation in the medial layer was analyzed in relationship to the lumen. Each sample was divided into 4 quadrants and the medial layer was examined in each quadrant; the area of examination for each quadrant was 25 μm^2. The same images were used for other collagen morphology using the MIPAR image software analysis.

[9] = test system: native blood vessels, anastomosis area; test: Fluorescence imaging of vessels after NVS and laser treatment; assay type: in vivo, rat; settings: vessels harvested immediately after NVS and laser treatment, FIG. 1E
Description: as §1, with “FIGS. 1C-E show photographs of the surgical procedure described in Example 1. (C) AVF surgery area was incubated with NVS solution for 5 min; (D) NVS was activated by laser at 450 nm for 1 min; (E) Fluorescent images of native blood vessels that are harvested immediately after the NVS and laser treatment. […] Femoral” for “Femoral”, “FIG. 1D is a photograph of the small molecule treated area being exposed to 1 minute of illumination with a 450 -nm light source.” left out

[10] = week 4, trend, not statistically different

NCCOCCOCCNc1ccc2c3c(cccc13)C(=O)N(CCOCCOCCN1C(=O)c3cccc4c(NCCOCCOCCN)ccc(c34)C1=O)C2=O [NVS, 2,2′-((ethane-1,2-diylbis(oxy))bis(ethane-2,1-diyl))bis(6-((2-(2-(2-aminoethoxy)ethoxy)ethyl)amino)-1H-benzo[de]isoquinoline-1,3(2H)-dione)]
AVF venous limb % open lumen area, fold larger than control ([1]; 4 weeks, p=0.009, FIG. 6): 1.98 fold
AVF venous limb open lumen area, fold larger than control ([1]; 4 weeks, p=0.014, FIG. 6): 4.18 fold
entire AVF % open lumen area, fold larger than control ([1]; 4 weeks, p=0.052, FIG. 5): 1.49 fold
entire AVF open lumen area, fold larger than control ([1]; 4 weeks, p=0.062, FIG. 5): 2.25 fold
tolerability of treatment ([1]; 10 μl drop of 2 mg/ml in PBS perivascular, 5 min, 450 nm light 1 min): tolerated the treatment well
venous diameter vs PBS control ([1]; by 4 weeks after AVF creation surgery): enlarged venous diameter
all four morphometric parameters (IEL-enclosed area, neointimal lesion area, open lumen area, % area of open lumen) vs PBS ([1]; entire AVF, 1 week): similar
NH (neointimal hyperplasia) area vs control ([1]; regardless of the locations): without significantly affecting
AVF open lumen area, effect of treatment ([1]; summary statement): significantly increased
MMP-2 expression level vs PBS group ([2]; arterial limb): trending lower
MMP-2 expression level vs PBS group ([2]; entire AVF): trending lower
MMP-2 area stained positive, fold lower than PBS group ([2]; venous limb, p=0.015, FIG. 8C): 1.8 fold
MMP-9 % area stained positive, fold lower than PBS group ([3]; arterial limb, p=0.036, FIG. 9D): 2.4 fold
MMP-9 expression level vs PBS group ([3]; entire AVF): trending lower
MMP-9 % area stained positive, fold lower than PBS group ([3]; venous limb, p=0.019, FIG. 9D): 1.8 fold
IL-6 mean gray value, fold lower than PBS group ([4]; arterial limb, p=0.015, FIG. 10C): 1.6 fold
IL-6 mean gray value, fold lower than PBS group ([4]; entire AVF, p=0.027, FIG. 10C): 1.4 fold
IL-6 expression level vs PBS group ([4]; venous limb): trending lower
Ki-67 expression level vs PBS group [5]: similar
cell death via apoptosis [6]: minimal cell death
cell death via apoptosis [7]: minimal cell death
analyzed regions exhibiting favorable collagen orientation for AVF maturation ([8]; AVFs at week 4, not statistically significant vs PBS (25%)): 58%
collagen shape features (roundness, roughness, eccentricity) vs PBS treated samples [8, 10]: more defined shape features
overall collagen area vs PBS treated samples [8, 10]: less overall collagen area
penetration into vascular tissue (green fluorescence) [9]: penetration throughout the anastomosis area

Source: patent US20230089273A1, “METHODS FOR MATURING AN ARTERIOVENOUS FISTULA” (ALUCENT BIOMEDICAL, INC., priority 2020, published 2023)
